Article PMC11345829, “Discovery of Potent Isoquinolinequinone N-Oxides to Overcome Cancer Multidrug Resistance” (Journal of Medicinal Chemistry, 2024)

How the values were obtained:
NCI-H460 cells [1] = assay: Trypan blue exclusion assay; type: cell-based, human; details: 48 h; GI50 (0.35 μM) and 2 × GI50 (0.7 μM)
Procedure: After this treatment, cells were mixed with 0.2% (v/v) trypan blue dye (Merck LifeScience) and counted on an hemocytometer (Neubauer Chamber).
S3.4 Effect of 25 on the viable cell number of NCI-H460 cells (Figure S65)
Figure S65 Effect of 25 on the viable cell number of NCI-H460 cells, determined with the Trypan blue exclusion assay. Cells were incubated for 48 h with medium, DMSO (vehicle 1: % of vehicle used at the GI50 concentration of compound; vehicle 2: % of vehicle used at the 2GI50 concentration of compound), […]
compound 25. Results are the mean ± SEM from at least three independent experiments. # p ≤ 0.05 and **** p ≤ 0.0001, when comparing DMSO vs. compound treatment.
(1 picture or pasted object on this page, not shown here)

NCI-H460 cells [2] = assay: Western blot protein expression analysis; type: cell-based, human
Procedure: Western blot analysis was performed to evaluate the expression of known proteins associated with cell proliferation, cell cycle, apoptosis, and DNA damage (Figure 10).
Figure 10 Effect of compound 25 on the NCI-H460 cellular expression of proteins involved in proliferation, cell death and DNA damage, analyzed by Western Blotting. […] (B) Graphical representation of the expression of proteins analyzed. β-actin was used as loading control. Results are the mean ± SEM from 3 independent experiments. * p ≤ 0.05, ** p ≤ 0.01 when comparing DMSO vs compound treatment.
After this treatment, cells were centrifuged at 1200 rpm for 5 min at 4 °C, and then lysed in Wynman’s buffer, as previously described,[79] containing EDTA-free protease (Roche, Basel, Switzerland) and phosphatase inhibitors (Merck Life Science) for 30 min with agitation and at 4 °C. Protein lysates were obtained after centrifugation at 13 000 rpm, for 10 min at 4 °C, and stored at −20 °C until used. A modified Lowry protocol, DC Protein assay kit (Bio-Rad, Hercules, California, USA), was used to quantify the total protein content (using a BSA standard calibration curve). The absorbance was analyzed with the Gen5 software on the microplate reader Synergy Mx, […].
Then 20 μg of protein per treatment condition was loaded and separated in 12% SDS-PAGE gels and electrophoretically transferred into nitrocellulose membranes (GE Healthcare Life Science, Chalfont St Giles, UK) for 2 h using a Mini Trans-Blot Cell system (Bio-Rad). The membranes were then stained with Ponceau S solution (PanReac AppliChem, Barcelona, Spain) to confirm that proper protein transfer occurred. Then, the membranes were blocked in Tris-buffered saline solution (TBS) pH 7.4 containing 5% (w/v) nonfat dry milk (Molico, Nestlé, Vevey, Switzerland) or 5% (w/v) BSA for 2 h at RT. The membranes were incubated for 90 min at RT with the following primary antibodies: caspase-3 (1:200; sc-56053), cyclin D1 (1:200; sc-8396), cyclin E (1:100; sc-377100), p21 (1:200; sc-6246), p53 (1:200; sc-126), PARP-1 (1:200; sc-8007), p-Histone H2A.X (1:200; sc-517348), TP53BP1 (1:100; sc-515841), and β-actin (1:200; sc-13118) from Santa Cruz Biotechnology, Dallas, Texas, USA. Following washing steps in TBS-T, the membranes were incubated with their respective secondary antibodies, antimouse IgG horseradish peroxidase (HRP) (Cytiva, Marlborough, Massachusetts, USA) or antirabbit IgG-HRP (Cytiva) for 1 h at RT in an orbital shaker. […] The signal was detected with a Fuji Medical Film Processor (FPM-100A model), and the immunoblots were digitalized using the GS-800 calibrated densitometer (Bio-Rad). Band quantification was carried out with Software Image Lab version 6.0.1 (Bio-Rad), and the molecular weight of protein bands were estimated by comparison with the bands from a protein marker (PageRuler Plus Prestained Protein Ladder, 10−250 kDa, Thermo Fisher Scientific).

MRC-5 = assay: SRB cytotoxicity assay, nontumorigenic lung fibroblasts; type: cell-based, human; details: 48 h
Procedure: Selectivity over nontumorigenic cells is a key requirement in cancer therapy so the cytotoxicity of 25 against nontumorigenic lung fibroblast (MRC-5) and breast cell lines (MCF12A) was evaluated with the SRB assay.
Figure 5 Cytotoxic effect of compound 25 on the nontumorigenic MRC-5 cell line (fibroblasts isolated from the lung tissue), analyzed by the SRB assay. Concentration−response curves of MRC-5 cells exposed to compound 25 for 48 h. Results are presented as percentage (%) of cell growth compared to control cells (vehicle, DMSO). For comparison purposes, the GI50 concentration of compound 25 in the NCI-H460 cell line is represented by the vertical dotted line. Results are the mean ± SEM from at least three independent experiments.
Cells were seeded at a previously determined optimal cell concentration (5.0 × 10^4 cells/mL for NSCLC cells and the nontumorigenic MRC-5 cell line and 1.0 × 10^5 cells/mL for colorectal cancer cells) and incubated at 37 °C for 24 h. […] The SRB assay was performed as previously described.[78],[79] […] Absorbance was measured at 510 nm in a multiplate reader (Synergy Mx, Biotek Instruments Inc., Winooski, Vermont, USA) using the Gen5 software (Biotek Instruments Inc.).

NCI-H460 cells [3] = system: NCI-H460 cells; design: method as in PMID 34915071; details: cited from earlier work

Compound | percentage of viable cells (NCI-H460 cells [1]) | cyclin D1 expression (NCI-H460 cells [2]; 48 h) | p53 expression (NCI-H460 cells [2]; 48 h) | PARP-1 expression (NCI-H460 cells [2]; 48 h, 0.35 and 0.7 μM) | p21 expression (NCI-H460 cells [2]; 48 h, 2 × GI50) | procaspase-3 expression (NCI-H460 cells [2]; 48 h, both 0.35 and 0.7 μM) | TP53BP1 and p-histone H2A.X expression (NCI-H460 cells [2]; higher concentration tested, not statistically significant) | p62, LC3-I and LC3-II expression (NCI-H460 cells [2]; preliminary, data not shown) | GI50 (MRC-5; Homo sapiens, MRC5, SRB, nontumorigenic lung fibroblasts, ±0.075 SEM) [nM] | effect on MRC-5 growth at low concentrations (MRC-5; below 0.5 μM) | concentration reducing viability of NCI-H460 cells in 2D models (NCI-H460 cells [3]) [µM]
COC(=O)c1c2c(c[n+]([O-])c1C)C(=O)C=C(NCc1ccccc1)C2=O [Compound 25] | significant decrease in the percentage of viable cells | increased the expression of cyclin D1 (although not statistically significantly) | slightly increased the expression of p53, although not statistically significant | does not alter the expression levels of PARP-1 | clearly increased the expression of p21 | significant decrease in procaspase-3 | increased the expression levels of TP53BP1 and of the p-histone H2A.X | did not alter the expression levels of p62, LC3-I. and LC3-II | 1530 | does not reduce the growth of this cell line | –
COc1cccc2c1C(=O)c1c(O)c3c(c(O)c1C2=O)C[C@@](O)(C(=O)CO)C[C@@H]3O[C@H]1C[C@H](N)[C@H](O)[C@H](C)O1 [doxorubicin, reference compound] | – | – | – | – | – | – | – | – | – | – | 0.1
